# ChEMBL document CHEMBL1152388, “Identification of substituted pyrazolo[1,5-a]quinazolin-5(4H)-one as potent poly(ADP-ribose)polymerase-1 (PARP-1) inhibitors” (Bioorg Med Chem Lett, 2009)
# How the values were obtained:
# [1] = molecular target: Poly [ADP-ribose] polymerase 1 (Homo sapiens, UniProt P09874); test: Inhibition of PARP1 by scintillation proximity assay
# [2] = test system: HeLa; test: Inhibition of PAR polymer formation in H2O2-stimulated human HeLa cells; type: functional, cell-based
# Sequence of Poly [ADP-ribose] polymerase 1 (P09874 whole entry): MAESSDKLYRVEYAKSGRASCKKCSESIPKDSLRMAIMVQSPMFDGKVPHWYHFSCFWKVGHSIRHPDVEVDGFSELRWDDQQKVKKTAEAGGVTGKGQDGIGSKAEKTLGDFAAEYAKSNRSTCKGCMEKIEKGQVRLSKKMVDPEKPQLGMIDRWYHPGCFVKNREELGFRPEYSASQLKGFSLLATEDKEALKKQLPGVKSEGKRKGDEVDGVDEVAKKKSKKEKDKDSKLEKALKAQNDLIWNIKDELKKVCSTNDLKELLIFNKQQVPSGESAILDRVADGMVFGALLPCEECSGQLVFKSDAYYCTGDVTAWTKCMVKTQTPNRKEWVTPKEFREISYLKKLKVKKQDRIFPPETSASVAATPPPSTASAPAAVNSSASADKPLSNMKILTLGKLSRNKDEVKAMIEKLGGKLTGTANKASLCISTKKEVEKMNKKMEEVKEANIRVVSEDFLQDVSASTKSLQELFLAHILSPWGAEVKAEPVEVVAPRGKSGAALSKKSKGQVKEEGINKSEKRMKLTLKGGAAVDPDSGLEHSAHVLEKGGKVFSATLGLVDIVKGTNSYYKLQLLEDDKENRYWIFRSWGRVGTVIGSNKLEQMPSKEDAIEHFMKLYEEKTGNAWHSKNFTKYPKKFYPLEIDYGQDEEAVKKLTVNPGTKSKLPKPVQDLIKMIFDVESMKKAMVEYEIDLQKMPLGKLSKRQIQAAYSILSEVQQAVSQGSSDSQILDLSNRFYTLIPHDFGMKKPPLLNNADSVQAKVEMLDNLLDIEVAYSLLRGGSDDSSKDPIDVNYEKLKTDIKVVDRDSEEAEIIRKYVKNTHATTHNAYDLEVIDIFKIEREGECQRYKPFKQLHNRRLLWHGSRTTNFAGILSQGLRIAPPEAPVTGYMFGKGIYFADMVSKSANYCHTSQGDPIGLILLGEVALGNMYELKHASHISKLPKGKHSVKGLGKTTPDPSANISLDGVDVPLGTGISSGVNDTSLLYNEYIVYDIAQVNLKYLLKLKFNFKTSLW
SMILES,IC50 [1],EC50 [2]
O=c1[nH]c2cc(-c3ccc(OC(F)(F)F)cc3)nn2c2ccccc12,> 1000 nM,–
CN1CCCN(C(=O)c2cnn3c2[nH]c(=O)c2ccccc23)CC1,> 1000 nM,–
O=C(c1cccc(-c2cc3[nH]c(=O)c4ccccc4n3n2)c1)N1CCN2CCC[C@H]2C1,500 nM,–
O=c1[nH]c2cc(C3CCCCC3)nn2c2ccccc12,200 nM,–
CN1CCC(CNC(=O)c2cc3[nH]c(=O)c4ccccc4n3n2)C1 (stereo not given),80 nM,–
N#Cc1ccc(-c2cc3[nH]c(=O)c4ccccc4n3n2)cc1,> 1000 nM,–
O=C(NCCCN1CCOCC1)c1cc2[nH]c(=O)c3ccccc3n2n1,140 nM,–
O=c1[nH]c2cc(-c3cccs3)nn2c2ccccc12,150 nM,–
O=c1[nH]c2cc(-c3ccco3)nn2c2ccccc12,200 nM,–
CN1CCCN(C(=O)c2cc3[nH]c(=O)c4ccccc4n3n2)CC1,10 nM,3900 nM
CN(C)CCN(C)C(=O)c1cccc(-c2cc3[nH]c(=O)c4ccccc4n3n2)c1,800 nM,–
CN1CCN(C(=O)c2cnn3c2[nH]c(=O)c2ccccc23)CC1,> 1000 nM,–
CN1CCN(C(=O)c2ccc(-c3cc4[nH]c(=O)c5ccccc5n4n3)cc2)CC1,1400 nM,–
CN(C)CCN(C)C(=O)c1ccc(-c2cc3[nH]c(=O)c4ccccc4n3n2)cc1,1300 nM,–
O=C(c1cc2[nH]c(=O)c3ccccc3n2n1)N1CCC(CN2CCOCC2)CC1,1100 nM,–
O=C(NCCC1(N2CCOCC2)CCCC1)c1cc2[nH]c(=O)c3ccccc3n2n1,90 nM,–
O=C(c1cnn2c1[nH]c(=O)c1ccccc12)N1CCCNCC1,> 1000 nM,–
CN1CCN(C(=O)c2cc3[nH]c(=O)c4ccccc4n3n2)CC1,300 nM,–
CN1CCN(C(=O)c2cccc(-c3cc4[nH]c(=O)c5ccccc5n4n3)c2)CC1,1000 nM,–
CN1CCC(CNC(=O)c2cc3[nH]c(=O)c4ccccc4n3n2)CC1,70 nM,–
O=c1[nH]c2cc(-c3ccc(F)cc3)nn2c2ccccc12,> 1000 nM,–
O=C(NCCN1CCOCC1)c1cnn2c1[nH]c(=O)c1ccccc12,> 1000 nM,–
COc1cc(-c2cc3[nH]c(=O)c4ccccc4n3n2)cc(OC)c1OC,30 nM,–
O=C(c1cc2[nH]c(=O)c3ccccc3n2n1)N1CCN(CC2CC2)CC1,300 nM,–
CCCc1ccc(-c2cc3[nH]c(=O)c4ccccc4n3n2)cc1,> 1000 nM,–
O=C(c1ccc(-c2cc3[nH]c(=O)c4ccccc4n3n2)cc1)N1CCN2CCC[C@H]2C1,2500 nM,–
O=C(NCCN1CCOCC1)c1cc2[nH]c(=O)c3ccccc3n2n1,140 nM,–
O=c1[nH]c2cc(-c3cccc(F)c3)nn2c2ccccc12,> 1000 nM,–
CC(C)(C)c1ccc(-c2cc3[nH]c(=O)c4ccccc4n3n2)cc1,> 1000 nM,–

# Continued by falling IC50 [1], values first:
IC50 [1],SMILES,EC50 [2]
700 nM,O=c1[nH]c2cc(-c3ccc(Br)cc3)nn2c2ccccc12,–
600 nM,O=c1[nH]c2cc(-c3cccc(Br)c3)nn2c2ccccc12,–
600 nM,O=C(c1cc2[nH]c(=O)c3ccccc3n2n1)N1CCN2CCC[C@H]2C1,–
500 nM,Cc1ccc(-c2cc3[nH]c(=O)c4ccccc4n3n2)cc1,–
500 nM,O=c1[nH]c2cc(-c3cccc(Cl)c3)nn2c2ccccc12,–
500 nM,CCc1ccc(-c2cc3[nH]c(=O)c4ccccc4n3n2)cc1,–
500 nM,O=c1[nH]c2cc(-c3ccc(Cl)cc3)nn2c2ccccc12,–
400 nM,CC(C)Cc1cc2[nH]c(=O)c3ccccc3n2n1,–
300 nM,Cc1cc2[nH]c(=O)c3ccccc3n2n1,–
200 nM,COc1ccc(-c2cc3[nH]c(=O)c4ccccc4n3n2)c(OC)c1,–
200 nM,COc1ccc(-c2cc3[nH]c(=O)c4ccccc4n3n2)cc1OC,–
100 nM,CN(C)CCN(C)C(=O)c1cc2[nH]c(=O)c3ccccc3n2n1,–
100 nM,COc1cccc(-c2cc3[nH]c(=O)c4ccccc4n3n2)c1OC,–
100 nM,O=c1[nH]c2cc(-c3ccccc3)nn2c2ccccc12,–
30 nM,O=C(c1cc2[nH]c(=O)c3ccccc3n2n1)N1CCCNCC1,–
